The values below are quoted from earlier work in US20120015026A1, “PHARMACEUTICAL COMPOSITION CONTAINING A DRUG AND SIRNA” (priority 2009, published 2012).

For data set [1] the following is noted: organic solvents such as ethanol, ethylacetate, dichloromethane.

Some results are limits rather than exact numbers.

With `C/C(=C\c1csc(C)n1)[C@@H]1C[C@@H]2O[C@]2(C)CCC[C@H](C)[C@H](O)[C@@H](C)C(=O)C(C)(C)[C@@H](O)CC(=O)O1` [EPO906, epothilone B], the solubility in water was below 0.1 µg/mL. Further, the “solubility in organic solvents” value in data set [1] is “highly soluble”.
